The nature of series [1]: AUC (0 to t) in Sprague-Dawley rat at 10 mg/kg, po measured upto 1440 mins by LC/MS/MS analysis. The following applies: in vivo. Also on record: time < 1440 min, dose 10 mg/kg, route po. It is filed as ADME, organism-based.
Series [2] deals with T1, Cholinesterase (Homo sapiens, UniProt P06276). The series can be described thus: Inhibition of human BuChE using butyrylthiocholine iodide as substrate incubated for 10 mins followed by substrate addition by DTNB-reagent based Ellman's colorimetric assay.
Series [3] relates to SH-SY5Y. Description: Cytotoxicity against human SH-SY5Y cells assessed as survival rate at 100 uM measured after 24 hrs by MTT assay relative to control. The following applies: read-out: Survival. The series is classed as functional.
Series [4] can be described thus: Cytotoxicity against mouse BV-2 cells assessed as survival rate at 100 uM measured after 24 hrs by MTT assay relative to control. The series is classed as toxicity, cell-based. The following applies: read-out: Survival.
The next series concerns L02. Description: Cytotoxicity against human L02 cells assessed as survival rate at 100 uM measured after 24 hrs by MTT assay relative to control. It is filed as functional. The following applies: read-out: Survival. (Formazan colour is commonly taken as a measure of viable cells.)
The nature of series [5]: AUC (0 to t) in Sprague-Dawley rat at 10 mg/kg, iv measured upto 1440 mins by LC/MS/MS analysis. The series is classed as ADME, organism-based. Also on record: time < 1440 min, dose 10 mg/kg, route iv. The conditions noted are these: in vivo, 24 h.
A short description of series [6]: AUC (0 to infinity) in Sprague-Dawley rat at 10 mg/kg, po measured upto 1440 mins by LC/MS/MS analysis. The series is classed as ADME, organism-based. Set-up: dose 10 mg/kg, time < 1440 min, route po. The conditions noted are these: in vivo.
A short description of series [7]: AUC (0 to infinity) in Sprague-Dawley rat at 10 mg/kg, iv measured upto 1440 mins by LC/MS/MS analysis. The series is classed as ADME, organism-based. Also on record: dose 10 mg/kg, time < 1440 min, route iv. The conditions noted are these: in vivo, 24 h.
The nature of series [8]: MRT infinity in Sprague-Dawley rat at 10 mg/kg, po measured upto 1440 mins by LC/MS/MS analysis. The conditions noted are these: in vivo. It is filed as ADME, organism-based.
Series [9] is described as follows: MRT infinity in Sprague-Dawley rat at 10 mg/kg, iv measured upto 1440 mins by LC/MS/MS analysis. The series is classed as ADME, organism-based. The conditions noted are these: in vivo.
Series [10] can be described thus: Half life in Sprague-Dawley rat at 10 mg/kg, po measured upto 1440 mins by LC/MS/MS analysis. The conditions noted are these: in vivo. It is filed as ADME, organism-based.
Series [11] can be described thus: Half life in Sprague-Dawley rat at 10 mg/kg, iv measured upto 1440 mins by LC/MS/MS analysis. It is filed as ADME, organism-based. The following applies: in vivo.
A short description of series [12]: Tmax in Sprague-Dawley rat at 10 mg/kg, po measured upto 1440 mins by LC/MS/MS analysis. It is filed as ADME, organism-based. The conditions noted are these: in vivo.
The nature of series [13]: Tmax in Sprague-Dawley rat at 10 mg/kg, iv measured upto 1440 mins by LC/MS/MS analysis. The following applies: in vivo. It is filed as ADME, organism-based.
Series [14] in a line: Cmax in Sprague-Dawley rat at 10 mg/kg, po measured upto 1440 mins by LC/MS/MS analysis. Set-up: time < 1440 min, dose 10 mg/kg, route po. The conditions noted are these: in vivo, 24 h. It is filed as ADME, organism-based.
Series [15] in a line: Cmax in Sprague-Dawley rat at 10 mg/kg, iv measured upto 1440 mins by LC/MS/MS analysis. The series is classed as ADME, organism-based. Also on record: dose 10 mg/kg, time < 1440 min, route iv. The following applies: in vivo, 24 h.
Series [16] in a line: Oral bioavailability in Sprague-Dawley rat at 10 mg/kg measured upto 1440 mins by LC/MS/MS analysis. The series is classed as ADME, organism-based. The conditions noted are these: in vivo.
The nature of series [17]: Acute toxicity in overnight fasted female ICR mouse assessed as animal death at 1 g/Kg, IG administered as single dose measured upto 15 days. The following applies: in vivo, po, 1000 mg/kg, 360 h, time < 15 day.
In series [18] the target is Cholinesterase (Equus caballus, UniProt P81908). Description: Inhibition of equine serum BuChE using butyrylthiocholine iodide as substrate incubated for 10 mins followed by substrate addition by DTNB-reagent based Ellman's colorimetric assay. A general note: DTNB colorimetry detects thiols as they appear.
For series [19], the system named is PC-12. Description: Cytotoxicity against rat PC12 cells assessed as survival rate at 100 uM measured after 24 hrs by MTT assay relative to control. The following applies: PC-12, 24 h, read-out: Survival.
Series [20] deals with SH-SY5Y. Description: Cytotoxicity against human SH-SY5Y cells assessed as inhibition of cell growth measured after 24 hrs by MTT assay. It is filed as functional, cell-based.
Series [21] is described as follows: Cytotoxicity against mouse BV-2 cells assessed as inhibition of cell growth measured after 24 hrs by MTT assay. It is filed as toxicity, cell-based.
Series [22] has as its target T1, Cholinesterase. Description: Binding affinity to human BChE assessed as dissociation constant by Surface Plasmon Resonance assay.
The nature of series [23]: Acute toxicity in overnight fasted male ICR mouse assessed as animal death at 1 g/Kg, IG administered as single dose measured upto 15 days. The following applies: in vivo, po, 1000 mg/kg, 360 h, time < 15 day.
Series [24] in a line: Acute toxicity in overnight fasted male ICR mouse assessed as body weight loss at 1 g/Kg, IG administered as single dose measured upto 15 days. The conditions noted are these: in vivo, po, 1000 mg/kg, 360 h, time < 15 day.
Series [25] can be described thus: Acute toxicity in overnight fasted female ICR mouse assessed as body weight loss at 1 g/Kg, IG administered as single dose measured upto 15 days. The conditions noted are these: in vivo, po, 1000 mg/kg, 360 h, time < 15 day.
A short description of series [26]: Acute toxicity in overnight fasted male ICR mouse assessed as abnormal behavior at 1 g/Kg, IG administered as single dose measured upto 15 days. The conditions noted are these: in vivo, po, 1000 mg/kg, 360 h, time < 15 day.
The nature of series [27]: Acute toxicity in overnight fasted female ICR mouse assessed as abnormal behavior at 1 g/Kg, IG administered as single dose measured upto 15 days. The conditions noted are these: in vivo, po, 1000 mg/kg, 360 h, time < 15 day.
Series [28] can be described thus: Metabolic stability in human liver microsomes assessed as half life at 1 uM incubated upto 50 mins in presence of NADPH by LC/MS/MS analysis. It is filed as ADME, Microsome.
Series [29] is described as follows: Metabolic stability in human liver microsomes assessed as parent compound remaining at 1 uM incubated upto 50 mins in presence of NADPH by LC/MS/MS analysis. The conditions noted are these: read-out: Stability. It is filed as ADME, Microsome. Background: Microsomes from liver hold many membrane-bound enzymes, among them those of drug oxidation.
Series [30] has as its system Mus musculus. Description: Neuroprotective activity against Abeta42 induced cognition impairement in AD mouse model assessed as reduction in latency time to platform at 10 mg/kg, po measured after 14 days by Morris water maze analysis. It is filed as functional, organism-based. The following applies: time 14.0 day.
The test system of series [31] is Mus musculus. The series can be described thus: Neuroprotective activity against Abeta42 induced cognition impairement in AD mouse model assessed as reduction in confusion of escape trajectory at 10 mg/kg, po measured after 14 days. It is filed as functional, organism-based. The following applies: time 14.0 day.
Series [32] has as its system SH-SY5Y. Description: Neuroprotective activity against Abeta1-42 induced toxicity in human SH-SY5Y cells at 1 to 5 uM preincubated for 1 hr with compound followed by co-incubation with Abeta1-42 and measured after 24 hrs by MTT assay. It is filed as functional, cell-based. The following applies: dose 1-5 µM, time 25.0 hrs.
For series [33], the system named is SH-SY5Y. The series can be described thus: Neuroprotective activity against glutamate induced toxicity in human SH-SY5Y cells at low concentration preincubated for 1 hr with compound followed by co-incubation with glutamate and measured after 24 hrs by MTT assay. It is filed as functional, cell-based. The conditions noted are these: time 25.0 hrs.
Series [34] concerns SH-SY5Y. Description: Neuroprotective activity against glutamate induced toxicity in human SH-SY5Y cells assessed as effect on cell survival rate at 10 to 20 uM preincubated for 1 hr with compound followed by co-incubation with glutamate and measured after 24 hrs by MTT assay. It is filed as functional, cell-based. The following applies: dose 10-20 µM, time 25.0 hrs.
For series [35], the system named is PC-12. Description: Cytoprotective activity against H2O2 induced cell damage in rat PC12 cells at 10 to 20 uM preincubated for 1 hr with compound followed by co-incubation with H2O2 and measured after 24 hrs by MTT assay. The conditions noted are these: dose 10-20 µM, time 25.0 hrs. It is filed as functional, cell-based.
The next series deals with BV-2. The series can be described thus: Induction of antioxidant effect in mouse BV-2 cells assessed as prevention of LPS-induced ROS production preincubated for 1 hr with compound followed by LPS stimulation and measured after 24 hrs by DCFH-DA staining based inverted fluorescence microscopy analysis. It is filed as functional, cell-based. The following applies: time 25.0 hrs.

Series [36] deals with SH-SY5Y. The series can be described thus: Induction of antioxidant effect in human SH-SY5Y cells assessed as prevention of Abeta1-42 induced ROS production preincubated for 1 hr with compound followed by Abeta1-42 stimulation and measured after 24 hrs by DCFH-DA staining based inverted fluorescence microscopy analysis. It is filed as functional, cell-based. The following applies: time 25.0 hrs.

We go through 2 compounds from ChEMBL document CHEMBL5352386 (Eur J Med Chem, 2022).

Calls of active or inactive are those of the source.

T1 sequence (P06276 whole entry): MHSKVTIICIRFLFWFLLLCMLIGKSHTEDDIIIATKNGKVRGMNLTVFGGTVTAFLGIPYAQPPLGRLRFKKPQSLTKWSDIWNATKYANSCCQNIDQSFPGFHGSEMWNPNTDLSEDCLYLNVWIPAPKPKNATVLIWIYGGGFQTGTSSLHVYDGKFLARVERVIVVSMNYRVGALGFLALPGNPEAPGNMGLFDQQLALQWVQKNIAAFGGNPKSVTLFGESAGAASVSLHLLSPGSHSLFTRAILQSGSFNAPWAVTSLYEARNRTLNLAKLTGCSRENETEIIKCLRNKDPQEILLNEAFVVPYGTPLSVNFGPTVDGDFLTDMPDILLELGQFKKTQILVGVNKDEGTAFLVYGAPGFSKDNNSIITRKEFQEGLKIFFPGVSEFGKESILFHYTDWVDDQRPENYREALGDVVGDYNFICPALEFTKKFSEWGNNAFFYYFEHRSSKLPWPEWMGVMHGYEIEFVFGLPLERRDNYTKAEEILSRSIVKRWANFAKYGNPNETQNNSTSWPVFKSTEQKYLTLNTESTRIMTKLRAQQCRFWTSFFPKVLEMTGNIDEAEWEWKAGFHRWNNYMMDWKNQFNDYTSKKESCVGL
Sequence of Cholinesterase (Equus caballus, UniProt P81908) (P81908 whole entry): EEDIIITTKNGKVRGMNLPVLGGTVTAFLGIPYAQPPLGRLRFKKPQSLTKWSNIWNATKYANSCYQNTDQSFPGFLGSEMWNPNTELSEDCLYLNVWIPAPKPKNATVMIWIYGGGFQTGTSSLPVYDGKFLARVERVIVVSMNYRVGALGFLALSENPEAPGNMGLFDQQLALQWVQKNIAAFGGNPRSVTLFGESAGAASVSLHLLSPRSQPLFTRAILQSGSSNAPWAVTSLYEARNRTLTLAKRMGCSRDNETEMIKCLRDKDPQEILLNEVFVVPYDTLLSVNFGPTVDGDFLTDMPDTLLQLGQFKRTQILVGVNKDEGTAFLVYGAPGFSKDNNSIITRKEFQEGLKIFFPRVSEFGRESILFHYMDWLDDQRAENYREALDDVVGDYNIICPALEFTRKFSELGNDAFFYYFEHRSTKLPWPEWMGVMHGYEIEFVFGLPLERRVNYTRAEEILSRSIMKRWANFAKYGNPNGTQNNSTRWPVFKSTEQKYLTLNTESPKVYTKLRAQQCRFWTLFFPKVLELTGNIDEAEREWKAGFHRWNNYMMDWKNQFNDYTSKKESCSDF

`Nc1nonc1-c1nc2ccccc2n1CC(=O)Nc1cnc2ccccc2c1`: the AUC(0-t) at 24 h in [1] was found to be 3360 ng·h/mL. Also, the IC50 against Cholinesterase [2] was determined as 50.1 nM. For the same compound, the results for the viability at 100 µM with SH-SY5Y [3] and in the series with L02 were 62.2% and 70.6%, respectively. Further, in series [4], the viability at 24 h, 100 µM was 62.7%. Besides, the AUCt in series [5] was determined as 15662.39 ng·h/mL. For the same compound, the AUC(0-inf) in series [6] turned out to be 3780 ng·h/mL. In addition, in [7], the AUC came to 15988.79 ng·h/mL. Also, the MRT inf in series [8] was determined as 7.37 h; in series [9] it was 3.11 h. The half-life in series [10] was 4.74 h; in [11] it was 2.68 h. The Tmax in series [12] was 0.18 h; in series [13] it was 1 min. The values for the Cmax in [14] and in series [15] were 975.05 ng/mL and 9752.7 ng/mL, respectively. In addition, the bioavailability in series [16] amounted to 23.6%.
As to `Nc1nonc1-c1nc2ccccc2n1CC(=O)Nc1cc([N+](=O)[O-])cc([N+](=O)[O-])c1`, the Activity result in series [17] is “Non-Toxic”; on Cholinesterase [22] (dose 0.3125-40 nM), “Dose-Dependent Effect”; in series [23], “Non-Toxic”; in series [24], “Non-Toxic”; in series [25], “Non-Toxic”; in series [26], “Non-Toxic”. Besides, the Activity entry in [27] is on record as “Non-Toxic”. Also, the half-inhibitory concentration (IC50) on Cholinesterase [18] was determined as 2.94 nM; at Cholinesterase [2] it was 34.6 nM; in the series on SH-SY5Y [20], 72300 nM. Besides, the viability at 100 µM in the series with PC-12 [19] came out at 50.8%; in the series with L02, 52.4%. The IC50 at 24 h in series [21] was 19200 nM. On Cholinesterase [22], the Kd amounted to 3.09 nM. The half-life at 1 µM in series [28] worked out at 11.5 h. The remaining at 50 min, 1 µM in series [29] came out at 92.8%. Further, the result with Mus musculus [30], in the series with Mus musculus [31], in the series with SH-SY5Y [32], in the series on SH-SY5Y [33], in the series on SH-SY5Y [34] and with PC-12 [35] was Active. The outcome with BV-2 and in the series on SH-SY5Y [36] was Active.

As usually defined, the AUC(0-t) is exposure summed from dosing to a finite time, without extrapolation to infinity. A higher AUC(0-t) goes with more exposure. Usually IC50 stands for the concentration at which inhibition is half-maximal. By AUC(0-inf) is commonly meant the area under the concentration-time curve extrapolated to infinity. Read a low AUC(0-inf) as less exposure. A word on the AUC: it is the area under the concentration-time curve, a measure of exposure. A higher AUC goes with more exposure. A word on the MRT inf: it is the average time that molecules of a dose stay in the body. As usually defined, the half-life is the time needed for the level to fall by half in the phase considered. Usually Tmax stands for the time from dosing to the highest level. Broadly, the Cmax is the highest concentration seen after dosing. What is called bioavailability is dose-corrected exposure relative to a reference, in per cent. Read a low bioavailability as poor availability. In general, Kd refers to the equilibrium constant for the complex coming apart.
